Data as given in US9233983B2, “Substituted hetero-bicyclic compounds, compositions and medicinal applications thereof” (ADVINUS THERAPEUTICS LIMITED, priority 2012, dated 2016).

Assays:
[1] = molecular target: human Bruton's Tyrosine Kinase (Btk) (Homo sapiens (Human), UniProt Q06187); assay: Recombinant Human Bruton's Tyrosine Kinase (Btk) Inhibition Assay (HTRF KinEASE-TK); format: biochemical; settings: 20 ng/ml rhBtk, 77 μM ATP (KM), 1 μM TK-Biotin substrate, 90 min; read-out: hBTK IC50
mouse splenocytes = assay: Inhibition of B Cell Activation as Measured by CD69 Expression in Mouse Splenocytes; format: cell-based; settings: Splenocyte; C57/BL6 splenocytes, 3 ug/mL goat anti-mouse IgM, 18-20 hrs, CD69+ve cells within CD19; read-out: Mouse spleenocyte IC50
Summary of the method: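 Total mouse splenocytes pre-incubated with compounds (half-log dilutions; DMSO 200× stocks from 2 mM) 30 min at 37 °C, then stimulated with 3 ug/mL anti-mouse IgM for 18-20 hrs. CD69+ cells within CD19+ B cells quantified by flow cytometry; IC50 from variable-slope sigmoid dose-response fit.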

Chain of human Bruton's Tyrosine Kinase (Btk) (Q06187 whole entry): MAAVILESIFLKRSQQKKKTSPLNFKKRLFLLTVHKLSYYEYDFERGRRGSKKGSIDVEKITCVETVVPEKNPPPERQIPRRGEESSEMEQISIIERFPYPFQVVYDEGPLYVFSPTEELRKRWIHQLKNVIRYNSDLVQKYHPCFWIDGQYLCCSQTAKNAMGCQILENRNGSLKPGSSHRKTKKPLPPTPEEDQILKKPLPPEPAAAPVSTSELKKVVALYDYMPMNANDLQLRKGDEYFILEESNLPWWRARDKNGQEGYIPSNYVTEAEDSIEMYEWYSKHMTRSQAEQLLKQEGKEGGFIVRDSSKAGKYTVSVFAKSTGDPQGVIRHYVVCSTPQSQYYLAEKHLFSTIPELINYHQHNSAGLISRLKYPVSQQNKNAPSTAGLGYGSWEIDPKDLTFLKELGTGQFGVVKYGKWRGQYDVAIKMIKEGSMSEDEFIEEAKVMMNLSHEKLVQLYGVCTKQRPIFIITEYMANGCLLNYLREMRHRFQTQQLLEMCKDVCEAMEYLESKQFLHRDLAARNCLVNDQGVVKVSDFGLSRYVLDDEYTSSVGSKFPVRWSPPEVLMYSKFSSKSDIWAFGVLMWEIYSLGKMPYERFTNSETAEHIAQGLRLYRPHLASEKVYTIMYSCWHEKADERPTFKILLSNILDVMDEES

IC50 [1] [µM]	IC50 (mouse splenocytes) [µM]	SMILES
0.0016	0.0077	O=C1c2c(F)cc(C3CC3)cc2OCCN1c1cccc(-c2ccnc3[nH]c(-c4ccc(CN5CCN(CC(F)(F)F)CC5)cn4)cc23)c1CO [Example I-16, 8-cyclopropyl-6-fluoro-4-[2-(hydroxymethyl)-3-[2-[5-[[4-(2,2,2-trifluoroethyl)piperazin-1-yl]methyl]-2-pyridyl]-1H-pyrrolo[2,3-b]pyridin-4-yl]phenyl]-2,3-dihydro-1,4-benzoxazepin-5-one]
0.009	0.179	CN1CCC(F)(c2ccc(-c3cc4c(-c5cccc(N6CCOc7cc(C8CC8)ccc7C6=O)c5CO)ccnc4[nH]3)cc2)CC1 [Example J-1, 8-cyclopropyl-4-[3-[2-[4-(4-fluoro-1-methyl-4-piperidyl)phenyl]-1H-pyrrolo[2,3-b]pyridin-4-yl]-2-(hydroxymethyl)phenyl]-2,3-dihydro-1,4-benzoxazepin-5-one]
0.0035	0.077	CN1CCCC(F)(c2ccc(-c3cc4c(-c5cccc(N6CCOc7cc(C8CC8)ccc7C6=O)c5CO)ccnc4[nH]3)cc2)C1 (stereo not shown) [Example J-2, 8-cyclopropyl-4-[3-[2-[4-(3-fluoro-1-methyl-3-piperidyl)phenyl]-1H-pyrrolo[2,3-b]pyridin-4-yl]-2-(hydroxymethyl)phenyl]-2,3-dihydro-1,4-benzoxazepin-5-one]
0.02	0.147	Cc1c(-c2ncnc3[nH]c(-c4ccc(C(=O)N5CCN(C)CC5)cc4)cc23)cccc1N1CCOc2cc(C3CC3)ccc2C1=O [Example K-1, 8-cyclopropyl-4-[2-methyl-3-[6-[4-(4-methylpiperazine-1-carbonyl)phenyl]-7H-pyrrolo[2,3-d]pyrimidin-4-yl]phenyl]-2,3-dihydro-1,4-benzoxazepin-5-one]
0.032	0.815	Cc1c(-c2ncnc3[nH]c(-c4ccc(C(=O)N5CCC(O)CC5)cc4)cc23)cccc1N1CCOc2cc(C3CC3)ccc2C1=O [Example K-2, 8-cyclopropyl-4-[3-[6-[4-(4-hydroxypiperidine-1-carbonyl)phenyl]-7H-pyrrolo[2,3-d]pyrimidin-4-yl]-2-methyl-phenyl]-2,3-dihydro-1,4-benzoxazepin-5-one]
0.051	0.129	Cc1c(-c2ncnc3[nH]c(-c4ccc(C(=O)N5CCC(C)(O)CC5)cc4)cc23)cccc1N1CCOc2cc(C3CC3)ccc2C1=O [Example K-4, 8-cyclopropyl-4-[3-[6-[4-(4-hydroxy-4-methyl-piperidine-1-carbonyl)phenyl]-7H-pyrrolo[2,3-d]pyrimidin-4-yl]-2-methyl-phenyl]-2,3-dihydro-1,4-benzoxazepin-5-one]
0.0097	0.189	Cc1c(-c2ncnc3[nH]c(-c4ccc(C(=O)N5CCNCC5)cc4)cc23)cccc1N1CCOc2cc(C3CC3)ccc2C1=O [Example K-6, 8-cyclopropyl-4-[2-methyl-3-[6-[4-(piperazine-1-carbonyl)phenyl]-7H-pyrrolo[2,3-d]pyrimidin-4-yl]phenyl]-2,3-dihydro-1,4-benzoxazepin-5-one]
0.021	> 1	Cc1c(-c2ncnc3[nH]c(-c4ccc(C(=O)N5CCC(O)CC5)cc4)cc23)cccc1N1CCc2cc(C3CC3)ccc2C1=O [Example K-16, 6-cyclopropyl-2-[3-[6-[4-(4-hydroxypiperidine-1-carbonyl)phenyl]-7H-pyrrolo[2,3-d]pyrimidin-4-yl]-2-methyl-phenyl]-3,4-dihydroisoquinolin-1-one]
0.036	> 1	Cc1c(-c2ncnc3[nH]c(-c4ccc(C(=O)N5CCNCC5)cc4)cc23)cccc1N1CCc2cc(C3CC3)ccc2C1=O [Example K-19, 6-cyclopropyl-2-[2-methyl-3-[6-[4-(piperazine-1-carbonyl)phenyl]-7H-pyrrolo[2,3-d]pyrimidin-4-yl]phenyl]-3,4-dihydroisoquinolin-1-one]
0.044	0.195	Cc1c(-c2ncnc3[nH]c(-c4ccc(C(=O)N5CCC(O)CC5)cc4)cc23)cccc1-n1ncc2cc(C3CC3)ccc2c1=O [Example K-20, 6-cyclopropyl-2-[3-[6-[4-(4-hydroxypiperidine-1-carbonyl)phenyl]-7H-pyrrolo[2,3-d]pyrimidin-4-yl]-2-methyl-phenyl]phthalazin-1-one]
0.002	0.008	NC(=O)c1ccc(-c2cc3c(-c4cccc(N5CCOc6cc(C7CC7)ccc6C5=O)c4CO)ccnc3[nH]2)nc1 [Example K-22, 6-[4-[3-(8-cyclopropyl-5-oxo-2,3-dihydro-1,4-benzoxazepin-4-yl)-2-(hydroxymethyl)phenyl]-1H-pyrrolo[2,3-b]pyridin-2-yl]pyridine-3-carboxamide]
0.008	0.067	CC1(O)CCN(C(=O)c2ccc(-c3cc4c(-c5cccc(N6CCOc7cc(C8CC8)ccc7C6=O)c5CO)ccnc4[nH]3)nc2)CC1 [Example L-1, 8-cyclopropyl-4-[2-(hydroxymethyl)-3-[2-[5-(4-hydroxy-4-methyl-piperidine-1-carbonyl)-2-pyridyl]-1H-pyrrolo[2,3-b]pyridin-4-yl]phenyl]-2,3-dihydro-1,4-benzoxazepin-5-one]
0.009	0.087	CC1(O)CCN(C(=O)c2ccc(-c3cc4c(-c5cccc(N6CCOc7cc(C8CC8)ccc7C6=O)c5CO)ccnc4[nH]3)cc2)CC1 [Example L-2, 8-cyclopropyl-4-[2-(hydroxymethyl)-3-[2-[4-(4-hydroxy-4-methyl-piperidine-1-carbonyl)phenyl]-1H-pyrrolo[2,3-b]pyridin-4-yl]phenyl]-2,3-dihydro-1,4-benzoxazepin-5-one]
0.008	0.021	CC1(O)CCN(C(=O)c2ccc(-c3cc4c(-c5cccc(N6CCOc7cc(C8CC8)cc(F)c7C6=O)c5CO)ccnc4[nH]3)nc2)CC1 [Example L-3, 8-cyclopropyl-6-fluoro-4-[2-(hydroxymethyl)-3-[2-[5-(4-hydroxy-4-methyl-piperidine-1-carbonyl)-2-pyridyl]-1H-pyrrolo[2,3-b]pyridin-4-yl]phenyl]-2,3-dihydro-1,4-benzoxazepin-5-one]
0.033	0.061	Cc1c(-c2nc(N)nc3[nH]c(-c4ccc(CN5CCN(C)CC5)cc4)cc23)cccc1N1CCOc2cc(C3CC3)ccc2C1=O [Example N-1, 4-[3-[2-amino-6-[4-[(4-methylpiperazin-1-yl)methyl]phenyl]-7H-pyrrolo[2,3-d]pyrimidin-4-yl]-2-methyl-phenyl]-8-cyclopropyl-2,3-dihydro-1,4-benzoxazepin-5-one]
0.055	0.171	Cc1c(-c2nc(N)nc3[nH]c(-c4ccc(C(=O)N5CCOCC5)cc4)cc23)cccc1N1CCOc2cc(C3CC3)ccc2C1=O [Example O-1, 4-[3-[2-amino-6-[4-(morpholine-4-carbonyl)phenyl]-7H-pyrrolo[2,3-d]pyrimidin-4-yl]-2-methyl-phenyl]-8-cyclopropyl-2,3-dihydro-1,4-benzoxazepin-5-one]
0.002	0.0146	CN(C)C(=O)N1CC=C(c2cc3c(-c4cccc(N5CCOc6cc(C7CC7)ccc6C5=O)c4CO)ccnc3[nH]2)CC1 [Example P-5, 4-[4-[3-(8-cyclopropyl-5-oxo-2,3-dihydro-1,4-benzoxazepin-4-yl)-2-(hydroxymethyl)phenyl]-1H-pyrrolo[2,3-b]pyridin-2-yl]-N,N-dimethyl-3,6-dihydro-2H-pyridine-1-carboxamide]
